From patent publication US20240309319A1, “COMPOSITIONS AND METHODS FOR THE GENERATION OF NEURONS AND USES THEREOF” (Washington University, priority 2021, published 2024)

System: cortical markers TBR1, MEF2C, BRN2, NEUROD2
Experiment: qPCR of cortical markers in miNs versus starting fibroblasts
Type: cell-based, human
Conditions: combination of MYT1L and ISX9 with miR-9/9*-124, day 30 miNs, ISX9 10 uM on PID 3, 6, 10, 14
Procedure: Direct Neuronal Reprogramming: Human fibroblasts were directly reprogrammed to miNs as previously described with modifications. Briefly, fibroblasts were transduced with supernatant lentivirus mix comprised of dox-inducible miR-9/9*-124, rtTA, and the transcription factor MYT1L. From PID1 to PID14 cells were treated with DAPT (2 uM) to increase neurite outgrowth and neuronal differentiation, and on PID 3, 6, 10, and 14, cells were also treated with the NEUROD1-activator ISX9 (10 uM) to push cortical fate. Fibroblasts and reprogramming cells were cultured in DMEM+10% FBS through replating at PID5. On PID6, cells were switched to Neurobasal-A with B27+(1000×) and Glutamax (500×), containing 1 μg/mL doxycycline, 200 μM dibutyl cyclic AMP, 1 mM valproic acid, 2 uM DAPT, 200 nM Ascorbic Acid, 10 ng/mL BDNF, 10 ng/mL NT-3, 1 μM retinoic acid, 10 uM ISX9, 100×RVC, and 3 μg/mL puromycin. […]
Quantitative PCR (qPCR): Total RNA was extracted from miNs using TRIzol (Invitrogen, USA) following manufacturer protocol. Reverse-transcription was performed with 150-200 ng of RNA with SuperScript IV First Strand Synthesis SuperMix (Invitrogen, USA). qPCR assay was run with SYBR Green PCR Master Mix and plate was run and analyzed on StepOnePlus Real-Time PCR System (AB Applied Biosystems, Germany). […] Expression values were calculated in Excel using the delta Ct method and Z-score calculation.

SMILES: O=C(NC1CC1)c1cc(-c2cccs2)on1 [ISX9, Isoxazole 9]
- Cortical fate (cortical marker expression by qPCR): sufficient to drive the cortical fate
